Measured values published in ChEMBL document CHEMBL1201862, “PubChem BioAssay data set” (2004).
Active and inactive are the calls of the source.

Key:
[1] = molecular target: Neurotensin receptor type 1 (Homo sapiens, UniProt P30989); type: functional;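 also: Image-based confirmatory dose-response assay measuring agonist activity at NTR1; NTR1-expressing U2OS osteosarcoma cells imaged for beta-arrestin GFP spot formation; agonist potency where compounds increase beta-arrestin recruitment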
[2] = inhibition of ARNT PAS-B/TACC3 complex formation – biochemical, AlphaScreen, cherry-picked samples, confirmation (AID 651703); type: functional, Homo sapiens;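 also: His-tagged ARNT PAS-B domain paired with GST-TACC3 E629A dimer coactivator fragment; potency of inhibitors that break up the complex and lower AlphaScreen signal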
[3] = molecular target: Protein Rev (Human immunodeficiency virus type 1 group M subtype B (isolate WMJ22)(HIV-1), UniProt P05866); assay: inhibitors of Rev protein–RRE RNA complex – biochemical, protein-RNA interaction, dose response (AID 842); parameters: species or system Human immunodeficiency virus 1
Sequence of Protein Rev (P05866 whole entry): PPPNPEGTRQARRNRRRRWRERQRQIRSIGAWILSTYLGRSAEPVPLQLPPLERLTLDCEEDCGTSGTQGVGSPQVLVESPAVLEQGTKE

[4] = molecular target: Cytochrome P450 2C19 (Homo sapiens, UniProt P33261); assay: qHTS Assay for Inhibitors and Substrates of Cytochrome P450 2C19. [Related pubchem assays: 410 ]; type: ADME; conditions: read-out: Potency
Sequence of Cytochrome P450 2C19 (P33261 whole entry): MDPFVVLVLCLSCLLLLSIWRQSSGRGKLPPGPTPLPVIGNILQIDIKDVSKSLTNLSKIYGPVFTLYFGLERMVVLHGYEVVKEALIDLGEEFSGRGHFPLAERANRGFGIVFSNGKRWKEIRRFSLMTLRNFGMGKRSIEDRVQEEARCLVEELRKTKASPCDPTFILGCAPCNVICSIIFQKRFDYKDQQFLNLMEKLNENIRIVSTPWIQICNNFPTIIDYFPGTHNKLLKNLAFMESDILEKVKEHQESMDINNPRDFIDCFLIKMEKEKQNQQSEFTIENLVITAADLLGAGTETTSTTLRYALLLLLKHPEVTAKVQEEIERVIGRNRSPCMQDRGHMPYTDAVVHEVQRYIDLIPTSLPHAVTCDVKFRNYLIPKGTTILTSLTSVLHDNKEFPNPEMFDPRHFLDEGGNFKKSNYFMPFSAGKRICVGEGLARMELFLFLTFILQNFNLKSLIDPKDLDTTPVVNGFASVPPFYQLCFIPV

[5] = molecular target: Cytochrome P450 2C9 (Homo sapiens, UniProt P11712); conditions: Potency
Sequence of Cytochrome P450 2C9 (P11712 whole entry): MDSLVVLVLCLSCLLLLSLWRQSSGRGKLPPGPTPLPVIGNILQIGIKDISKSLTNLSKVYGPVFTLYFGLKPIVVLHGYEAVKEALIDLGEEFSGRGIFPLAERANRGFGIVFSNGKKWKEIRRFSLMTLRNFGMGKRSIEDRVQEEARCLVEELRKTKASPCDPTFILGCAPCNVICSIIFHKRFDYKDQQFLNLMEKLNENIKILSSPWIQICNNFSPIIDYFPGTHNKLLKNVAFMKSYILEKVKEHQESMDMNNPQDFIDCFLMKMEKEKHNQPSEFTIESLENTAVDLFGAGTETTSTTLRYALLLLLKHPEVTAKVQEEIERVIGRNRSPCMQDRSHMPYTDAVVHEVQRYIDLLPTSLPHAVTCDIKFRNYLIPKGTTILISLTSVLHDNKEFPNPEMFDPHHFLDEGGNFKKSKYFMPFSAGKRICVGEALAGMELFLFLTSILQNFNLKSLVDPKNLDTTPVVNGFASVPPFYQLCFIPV

[6] = molecular target: T1, Intestinal-type alkaline phosphatase (Homo sapiens, UniProt P09923); assay: human intestinal alkaline phosphatase activators, dose response, biochemical, luminescence, uHTS hits (AID 463120); type: functional
T1 sequence (P09923 whole entry): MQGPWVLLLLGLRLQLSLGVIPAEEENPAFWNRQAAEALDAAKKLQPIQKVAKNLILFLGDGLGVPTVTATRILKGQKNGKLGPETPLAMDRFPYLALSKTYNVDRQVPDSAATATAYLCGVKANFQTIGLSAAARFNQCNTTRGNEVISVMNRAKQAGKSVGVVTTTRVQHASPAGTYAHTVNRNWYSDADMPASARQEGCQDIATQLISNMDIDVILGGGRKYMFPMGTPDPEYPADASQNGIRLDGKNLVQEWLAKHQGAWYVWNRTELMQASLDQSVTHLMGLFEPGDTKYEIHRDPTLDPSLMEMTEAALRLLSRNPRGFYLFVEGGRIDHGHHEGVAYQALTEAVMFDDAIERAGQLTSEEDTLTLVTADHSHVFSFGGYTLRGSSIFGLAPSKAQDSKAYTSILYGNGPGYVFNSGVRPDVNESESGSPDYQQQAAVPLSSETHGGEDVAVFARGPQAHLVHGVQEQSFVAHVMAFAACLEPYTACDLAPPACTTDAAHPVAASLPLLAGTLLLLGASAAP

[7] = molecular target: T1, Intestinal-type alkaline phosphatase; assay: Dose Response confirmation of uHTS hits from a small molecule inhibitors of human intestinal alkaline phosphatase via a luminescent assay. [Related pubchem assays (depositor defined):AID2544, AID2574]; type: functional
[8] = molecular target: Potassium voltage-gated channel subfamily KQT member 2 (Rattus norvegicus, UniProt O88943); assay: potentiation of rat KCNQ2 current – cell-based, retigabine-insensitive compounds, dose response (AID 2654); type: functional
[9] = molecular target: Cyclin-dependent kinase 5/CDK5 activator 1 (Homo sapiens, UniProt Q00535); assay: blockade of human CDK5 activity – biochemical, cherry-picked samples, set 2, dose response (AID 504545)
Sequence of Cyclin-dependent kinase 5/CDK5 activator 1 (Q00535 whole entry): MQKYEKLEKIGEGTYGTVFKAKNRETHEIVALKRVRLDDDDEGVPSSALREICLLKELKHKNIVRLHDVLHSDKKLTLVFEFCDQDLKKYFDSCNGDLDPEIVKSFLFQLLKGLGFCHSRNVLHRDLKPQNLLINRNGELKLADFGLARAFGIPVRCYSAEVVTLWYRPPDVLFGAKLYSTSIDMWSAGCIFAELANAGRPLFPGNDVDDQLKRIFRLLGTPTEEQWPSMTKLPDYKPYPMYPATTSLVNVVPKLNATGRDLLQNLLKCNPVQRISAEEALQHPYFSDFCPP
Sequence of Cyclin-dependent kinase 5/CDK5 activator 1 (Q15078 whole entry, further chain): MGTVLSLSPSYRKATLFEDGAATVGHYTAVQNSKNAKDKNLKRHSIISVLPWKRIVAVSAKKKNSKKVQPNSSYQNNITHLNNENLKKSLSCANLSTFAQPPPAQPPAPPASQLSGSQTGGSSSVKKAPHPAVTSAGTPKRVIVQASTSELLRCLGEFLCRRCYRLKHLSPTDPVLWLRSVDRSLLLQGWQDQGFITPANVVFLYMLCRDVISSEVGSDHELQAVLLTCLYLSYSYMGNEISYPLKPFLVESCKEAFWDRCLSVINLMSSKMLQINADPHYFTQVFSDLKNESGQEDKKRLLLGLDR

[10] = Luminescence Cell-Based Dose Confirmation HTS to Identify Inhibitors of Platelet Dense Granule Release. [Related pubchem assays: 1663 (Primary HTS), 1678 (Summary of Project)]; type: functional
[11] = molecular target: T2, Eukaryotic translation initiation factor 2-alpha kinase 3 (Homo sapiens, UniProt Q9NZJ5); assay: Dose response cell-based high-throughput screening assay to measure PERK inhibition. [Related pubchem assays: 1416 ]; type: functional
T2 sequence (Q9NZJ5 whole entry): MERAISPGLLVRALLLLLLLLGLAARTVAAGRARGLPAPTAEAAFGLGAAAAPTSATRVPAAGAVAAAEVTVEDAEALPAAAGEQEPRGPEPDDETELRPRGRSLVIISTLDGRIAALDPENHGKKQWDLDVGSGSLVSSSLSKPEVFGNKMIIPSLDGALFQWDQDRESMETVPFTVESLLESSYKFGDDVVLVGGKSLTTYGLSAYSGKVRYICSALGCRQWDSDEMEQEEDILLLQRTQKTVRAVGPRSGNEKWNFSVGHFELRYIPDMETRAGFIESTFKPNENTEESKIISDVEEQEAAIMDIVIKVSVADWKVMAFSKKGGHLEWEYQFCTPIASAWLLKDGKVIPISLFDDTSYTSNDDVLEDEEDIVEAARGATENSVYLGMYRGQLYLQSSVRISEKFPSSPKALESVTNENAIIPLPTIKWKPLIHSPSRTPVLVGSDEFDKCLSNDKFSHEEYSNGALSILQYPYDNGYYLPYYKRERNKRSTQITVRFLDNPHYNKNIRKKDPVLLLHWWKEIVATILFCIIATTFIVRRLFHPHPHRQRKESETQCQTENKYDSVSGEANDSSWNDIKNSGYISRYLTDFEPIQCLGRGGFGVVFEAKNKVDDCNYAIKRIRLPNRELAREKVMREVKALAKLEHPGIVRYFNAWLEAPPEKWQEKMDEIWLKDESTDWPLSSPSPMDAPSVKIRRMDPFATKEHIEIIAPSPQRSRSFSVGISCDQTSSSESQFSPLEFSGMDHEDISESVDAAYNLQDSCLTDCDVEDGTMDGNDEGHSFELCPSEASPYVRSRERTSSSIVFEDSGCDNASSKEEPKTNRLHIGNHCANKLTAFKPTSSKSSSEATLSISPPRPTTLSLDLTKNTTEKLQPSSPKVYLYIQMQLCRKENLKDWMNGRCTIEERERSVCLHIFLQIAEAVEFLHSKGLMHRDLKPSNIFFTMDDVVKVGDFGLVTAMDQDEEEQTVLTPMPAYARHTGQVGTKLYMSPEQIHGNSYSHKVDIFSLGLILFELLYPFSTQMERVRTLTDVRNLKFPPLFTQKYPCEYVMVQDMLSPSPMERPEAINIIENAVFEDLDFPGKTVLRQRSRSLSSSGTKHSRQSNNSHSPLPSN

[12] = molecular target: Luciferin 4-monooxygenase (Photinus pyralis, UniProt P08659); assay: inhibition of purified Photinus pyralis luciferase – biochemical, luminescence, dose response (AID 1891)
Sequence of Luciferin 4-monooxygenase (P08659 whole entry): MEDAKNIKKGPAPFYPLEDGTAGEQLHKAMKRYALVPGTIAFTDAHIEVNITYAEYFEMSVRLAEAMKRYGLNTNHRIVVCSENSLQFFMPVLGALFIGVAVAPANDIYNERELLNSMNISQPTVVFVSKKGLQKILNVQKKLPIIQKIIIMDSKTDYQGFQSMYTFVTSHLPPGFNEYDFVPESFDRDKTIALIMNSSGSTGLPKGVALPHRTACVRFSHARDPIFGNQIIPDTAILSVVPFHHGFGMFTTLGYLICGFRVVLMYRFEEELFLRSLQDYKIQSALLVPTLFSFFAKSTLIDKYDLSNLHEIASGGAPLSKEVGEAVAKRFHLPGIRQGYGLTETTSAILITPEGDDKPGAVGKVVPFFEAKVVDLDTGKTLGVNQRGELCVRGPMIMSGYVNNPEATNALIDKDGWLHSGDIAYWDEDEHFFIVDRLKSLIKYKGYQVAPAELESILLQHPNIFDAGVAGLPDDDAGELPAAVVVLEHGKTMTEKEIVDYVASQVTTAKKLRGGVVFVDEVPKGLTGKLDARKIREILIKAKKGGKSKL

[13] = molecular target: T2, Eukaryotic translation initiation factor 2-alpha kinase 3; assay: Counterscreen assay for PERK inhibitors: Dose response cell-based high throughput screening assay to measure inhibition of PERK at 6 hours. [Related pubchem assays: 1522, 1416 ]; type: functional
[14] = tested on: Streptococcus sp. 'group A'; assay: Streptococcus pyogenes SK(-)GAS viability under kanamycin – luminescence, BacTiterGlo, confirmation, counter-screen for streptokinase expression inhibitor project, dose response (AID 1900); type: functional, organism-based
[15] = molecular target: X-box-binding protein 1 (Homo sapiens, UniProt P17861); type: functional, Cricetulus griseus;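 also: confirmatory dose-response counter-screen serving a CHOP assay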
Sequence of X-box-binding protein 1 (P17861 whole entry): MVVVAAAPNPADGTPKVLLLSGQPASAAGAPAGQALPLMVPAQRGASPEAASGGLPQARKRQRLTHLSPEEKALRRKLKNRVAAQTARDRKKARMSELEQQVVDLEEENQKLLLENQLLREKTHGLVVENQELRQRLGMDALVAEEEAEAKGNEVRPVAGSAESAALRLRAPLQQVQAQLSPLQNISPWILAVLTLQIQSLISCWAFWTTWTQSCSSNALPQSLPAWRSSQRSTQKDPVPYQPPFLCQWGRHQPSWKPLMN

[16] = Luminescence Cell-Based Dose Retest to Confirm Inhibitors of Cancer Stem Cells. [Related pubchem assays (depositor defined):AID2717, AID2721]; type: functional; conditions: Homo sapiens
[17] = tested on: Streptococcus; assay: GAS UMAA2166 growth inhibition – luminescence, BacTiterGlo, counter-screen for streptokinase expression inhibitor project, dose response (AID 1915); type: functional, organism-based;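 also: potency for reduction of bacterial viability or growth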
[18] = viability of uninfected HEp-2 cells – cell-based, HTS, cytotoxicity control for RSV inhibitor project, dose response (AID 2410); type: functional; conditions: human respiratory syncytial virus
[19] = tested on: HeLa; assay: viability loss in HeLa cells – cell-based, 24 h, cherry-picked samples, cytotoxicity control, dose response (AID 504726); type: functional; conditions: Homo sapiens;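 also: potency for cytotoxicity as loss of luminescence signal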
[20] = molecular target: T3, Polyadenylate-binding protein 1 (Homo sapiens, UniProt P11940); assay: MLLE domain peptide-binding blockers, IC50 – biochemical, fluorescence polarization, FITC-PAM2 peptide, dose response (AID 602259); type: functional; conditions: read-out: IC50_Mean
T3 sequence (P11940 whole entry, the tested form may be a part): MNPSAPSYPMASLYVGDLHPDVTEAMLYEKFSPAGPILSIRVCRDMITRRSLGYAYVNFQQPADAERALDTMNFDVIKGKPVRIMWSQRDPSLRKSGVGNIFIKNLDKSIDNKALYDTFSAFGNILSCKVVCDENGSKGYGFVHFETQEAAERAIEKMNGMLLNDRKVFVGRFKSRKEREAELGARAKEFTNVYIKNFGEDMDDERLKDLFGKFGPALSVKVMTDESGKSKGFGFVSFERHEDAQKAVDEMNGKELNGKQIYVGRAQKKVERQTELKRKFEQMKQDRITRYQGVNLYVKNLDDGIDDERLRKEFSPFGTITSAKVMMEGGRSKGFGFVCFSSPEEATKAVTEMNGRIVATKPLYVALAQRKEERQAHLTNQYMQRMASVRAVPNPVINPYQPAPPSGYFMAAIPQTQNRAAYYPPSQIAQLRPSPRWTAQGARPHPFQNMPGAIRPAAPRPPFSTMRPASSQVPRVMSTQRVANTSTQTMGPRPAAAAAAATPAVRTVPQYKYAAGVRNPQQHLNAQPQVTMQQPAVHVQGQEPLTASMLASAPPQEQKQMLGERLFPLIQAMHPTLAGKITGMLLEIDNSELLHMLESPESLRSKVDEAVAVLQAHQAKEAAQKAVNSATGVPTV

[21] = viability loss in THP-1 monocytes – THP-1 cells, cytotoxicity control for Vif-APOBEC3G degradation inhibitor project, dose response (AID 1117359); type: functional; conditions: THP-1
[22] = molecular target: T3, Polyadenylate-binding protein 1; assay: MLLE binding blockers, Cy5 peptide tracer – biochemical, fluorescence polarization, Cy5-PAM2 peptide, secondary, miRNA deadenylation inhibitor project, dose response (AID 602260); type: functional; conditions: read-out: IC50_Mean
[23] = Trypanosoma cruzi growth suppression in host cells – NIH3T3 host cells, beta-gal luminescence, confirmation (AID 2044); type: functional, cell-based;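 also: intracellular parasites grown in NIH/3T3 mouse fibroblasts as host cells; luminescent beta-galactosidase reporter signal from transgenic T. cruzi replicating inside host cells; inhibitors lower the luminescence signal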
[24] = decrease of insulin promoter-GFP reporter – imaging, high-content screening, mouse beta cells (AID 1628); type: functional; conditions: MIN6
[25] = molecular target: Paired box protein Pax-8 (Homo sapiens, UniProt Q06710); assay: PAX8 transcriptional activity inhibition in RMG-I – RMG-I cells, luciferase, cherry-pick, dose response (AID 687027); type: functional, cell-based;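 also: luciferase reporter driven by Pax8 target thyroperoxidase promoter measured by SteadyGlo luminescence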
[26] = MIN6 cell viability loss – mouse insulinoma, cytotoxicity control, dose response (AID 2122); type: functional;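 also: confirmatory high-throughput counterscreen run to flag cytotoxic compounds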
[27] = fluconazole-exposed Candida albicans growth modulators – fluorescence, retest, confirmation (AID 2467); type: functional, cell-based
[28] = molecular target: Beta-galactosidase (Escherichia coli, UniProt Q8VNN2); assay: detection-enzyme interference by beta-gal modulators – biochemical, E. coli enzyme, set 3, artefact control for CCR6 antagonist project, dose response (AID 504712); type: functional
[29] = NIH3T3 cell viability loss – ATP luminescence, mouse fibroblasts, counter-screen, dose response (AID 2010); type: functional, cell-based;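 also: cells exposed to compound for about 90 hours before reading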
[30] = general cell-killing toxicity readout – plate reader, dry powder samples, cytotoxicity control for PAX8 inhibitor project, dose response (AID 743021); type: functional, cell-based
[31] = NIH-3T3 fibroblast cytotoxicity, dose response, cytotoxicity control, cell-based, fluorescence, Alamar Blue, secondary assay (AID 2327); type: functional;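 also: NIH-3T3 mouse fibroblasts cultured with fluconazole at 8 µg/mL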
[32] = molecular target: C-C chemokine receptor type 6 (Homo sapiens, UniProt P51684); assay: antagonism of CCR6 beta-arrestin recruitment – cell-based, luminescent beta-arrestin readout, dose response (AID 504728); type: functional

For `O=C1NC(=O)N(Cc2ccc(F)cc2)C(=O)/C1=C/c1cccs1`, which EC50 [1] is on record?
Its EC50 is 12.6 µM (active).

With `COc1ccc(Nc2nc(N)nc(CN(C)C3CCCCC3)n2)cc1` as the compound, how does the AC50 [2] read?
The AC50 was 90.7 µM (active).

What about the IC50 [3] of the same compound?
The IC50 was > 79.4 µM (not active).

Which AC50 [4] does the source give for `CC(C)[C@@H](CC(=O)N[C@@H]1CCNC[C@H]1C(=O)N[C@H](CC(=O)N[C@@H](CCC(=O)O)CC(=O)O)Cc1ccccc1)NC(=O)C[C@H](CO)NC(=O)[C@@H]1CNCC[C@H]1N` here?
The AC50 was 39.8 µM (inconclusive).

And the AC50 [5]?
The AC50 was 25.1 µM (inconclusive).

For `CC(=O)Nc1ccc(NC(=O)C2CC(=O)N(C(C)C)C2)cc1` (stereo not given), which EC50 [6] is on record?
The EC50 was > 100 µM (inactive).

What about the IC50 [7] of the same compound?
The IC50 was > 100 µM (inactive).

Which EC50 [8] does the source give for `O=C(Nc1ccc(Cl)cc1)Nc1cccnc1` here?
Its EC50 is 6.85 µM (active).

Which AC50 [9] does the source give for `Cc1ccc(-n2nc(C)c3c2C(Br)C(C)(C)CC3=O)nc1` (stereo not given) here?
The AC50 was 43.3 µM (active).

Which EC50 [10] does the source give for `COc1ccc(N=Nc2n(C)c3ccccc3[n+]2C)cc1` here?
Its EC50 is 0.738 µM (active).

What about the EC50 [11] of the same compound?
The EC50 was > 55.7 µM (not active).

What about the EC50 [12] of the same compound?
The EC50 was 0.631 µM (active).

What about the EC50 [13] of the same compound?
The EC50 was > 55.7 µM (not active).

With `CCc1cc(-c2[nH]nc(C)c2Oc2ccc(C(C)C)cc2)c(O)cc1O` as the compound, how does the EC50 [14] read?
The EC50 was 2.28 µM (active).

And the “Absolute IC50 (XBP1)” value [15]?
The value was < 10 µM.

What about the AC50 [16] of the same compound?
Its AC50 is 3.13 µM (active).

And the EC50 [17]?
Its EC50 is 4.99 µM (active).

What about the CC50 [18] of the same compound?
Its CC50 is 15.9 µM (active).

Which results are given for `CN(Cc1cnc2nc(N)nc(N)c2n1)c1ccc(C(=O)NC(CCC(=O)O)C(=O)O)cc1` (stereo not given)?
AC50 [19]: 0.629 µM (active); IC50 [20]: 41.6 µM (inactive); AC50 [2]: 74.5 µM (active); CC50 [21]: 0.23 µM (active); IC50 [22]: 52.1 µM (inactive)

Which EC50 [14] does the source give for `COc1cccc(/C=N/Nc2nc(Nc3ccc([N+](=O)[O-])cc3)nc(N3CCCC3)n2)c1O` here?
Its EC50 is 3.77 µM (active).

And the EC50 [23]?
The EC50 was 0.866 µM (active).

What about the IC50 [24] of the same compound?
The IC50 was 2.8 µM (active).

And the AC50 [25]?
Its AC50 is 5.65 µM (active).

What about the IC50 [26] of the same compound?
Its IC50 is 2.71 µM (active).

What about the EC50 [27] of the same compound?
The EC50 was > 38 µM (not active).

What about the IC50 [28] of the same compound?
The IC50 was > 66.6 µM (inactive).

What about the EC50 [29] of the same compound?
The EC50 was 8.48 µM (active).

And the AC50 [30]?
The AC50 was 20.9 µM (active).

What about the EC50 [17] of the same compound?
Its EC50 is 12.1 µM (active).

What about the EC50 [31] of the same compound?
Its EC50 is 4.69 µM (active).

What about the IC50 [32] of the same compound?
Its IC50 is 1.64 µM (active).
